{
  "source": "patent US9513294B2",
  "about": "“Megastokes amino-triazolyl-BODIPY compounds and applications to live neuron staining and human serum albumin FA1 drug site probing” (National University of Singapore, priority 2012, dated 2016)",
  "key": {"[1]": {"assay": "Quantum yield measurements versus Acridine Yellow in EtOH", "assay_type": "physicochemical", "conditions": "quantum yield", "in_short": "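Fluorescence quantum yield is relative to Acridine Yellow in EtOH (Φ 0.47), with excitation at 460 nm. Integrated emission at 510–700 nm was corrected for absorbance at the excitation wavelength and for solvent refractive index.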"}, "[2]": {"assay": "Absorbance and fluorescence emission spectra (SpectraMax M2)", "assay_type": "physicochemical", "conditions": "for λmax Abs. (nm) / λmax Em. (nm): MKAC compound library; for λmax Abs. (nm) / λmax Absorp. (nm): absorbance maximum; for λmax Em. (nm) / λmax Emission (nm): fluorescence emission maximum; for λmax Absorp. (nm) / λmax Emission (nm): MKCA compound library", "in_short": "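Absorbance and emission maxima measured on a SpectraMax M2 spectrophotometer, which also gave quantum yield data; analysis in GraphPrism.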"}},
  "data": [
    {"smiles": "CCCc1cn(-c2ccc3n2[B-](F)(F)[N+]2=C(N4CCCC4)C=CC2=C3c2ccc(NC(C)=O)cc2)nn1", "note": "[MKAC215-48]", "values": [
      {"measurement": "φ (%)", "setting": "[1]; MKAC compound library", "value": 2.70, "unit": "%"},
      {"measurement": "λmax Abs. (nm)", "setting": "[2]", "value": 461, "unit": "nm"},
      {"measurement": "λmax Em. (nm)", "setting": "[2]", "value": 566, "unit": "nm"}
    ]},
    {"smiles": "CC(=O)Nc1ccc(C2=C3C=CC(N4CCCC4)=[N+]3[B-](F)(F)n3c2ccc3-n2cc(CO)nn2)cc1", "note": "[MKAC215-70]", "values": [
      {"measurement": "φ (%)", "setting": "[1]; MKAC compound library", "value": 1.11, "unit": "%"},
      {"measurement": "λmax Abs. (nm)", "setting": "[2]", "value": 461, "unit": "nm"},
      {"measurement": "λmax Em. (nm)", "setting": "[2]", "value": 574, "unit": "nm"}
    ]},
    {"smiles": "CCCC(C)c1cn(-c2ccc3n2[B-](F)(F)[N+]2=C(NCc4cc(F)cc(F)c4)C=CC2=C3c2ccc(NC(C)=O)cc2)nn1", "note": "(stereo not drawn) [MKAC412-3]", "values": [
      {"measurement": "φ (%)", "setting": "[1]; MKAC compound library", "value": 27.73, "unit": "%"},
      {"measurement": "λmax Abs. (nm)", "setting": "[2]", "value": 466, "unit": "nm"},
      {"measurement": "λmax Em. (nm)", "setting": "[2]", "value": 561, "unit": "nm"}
    ]},
    {"smiles": "CC(=O)Nc1ccc(C2=C3C=CC(NCc4cc(F)cc(F)c4)=[N+]3[B-](F)(F)n3c2ccc3-n2cc(C3CC3)nn2)cc1", "note": "[MKAC412-4]", "values": [
      {"measurement": "φ (%)", "setting": "[1]; MKAC compound library", "value": 26.84, "unit": "%"},
      {"measurement": "λmax Abs. (nm)", "setting": "[2]", "value": 466, "unit": "nm"},
      {"measurement": "λmax Em. (nm)", "setting": "[2]", "value": 562, "unit": "nm"}
    ]},
    {"smiles": "CC(=O)Nc1ccc(C2=C3C=CC(NCc4cc(F)cc(F)c4)=[N+]3[B-](F)(F)n3c2ccc3-n2cc(CC3CCCCC3)nn2)cc1", "note": "[MKAC412-8]", "values": [
      {"measurement": "φ (%)", "setting": "[1]; MKAC compound library", "value": 16.81, "unit": "%"},
      {"measurement": "λmax Abs. (nm)", "setting": "[2]", "value": 467, "unit": "nm"},
      {"measurement": "λmax Em. (nm)", "setting": "[2]", "value": 562, "unit": "nm"}
    ]},
    {"smiles": "CC(=O)Nc1ccc(C2=C3C=CC(NCc4cc(F)cc(F)c4)=[N+]3[B-](F)(F)n3c2ccc3-n2cc(CN(C)Cc3ccccc3)nn2)cc1", "note": "[MKAC412-18]", "values": [
      {"measurement": "φ (%)", "setting": "[1]; MKAC compound library", "value": 21.83, "unit": "%"},
      {"measurement": "λmax Abs. (nm)", "setting": "[2]", "value": 465, "unit": "nm"},
      {"measurement": "λmax Em. (nm)", "setting": "[2]", "value": 561, "unit": "nm"}
    ]},
    {"smiles": "CC(=O)Nc1ccc(C2=C3C=CC(NCc4cc(F)cc(F)c4)=[N+]3[B-](F)(F)n3c2ccc3-n2cc(CCc3ccccc3)nn2)cc1", "note": "[MKAC412-19]", "values": [
      {"measurement": "φ (%)", "setting": "[1]; MKAC compound library", "value": 24.16, "unit": "%"},
      {"measurement": "λmax Abs. (nm)", "setting": "[2]", "value": 467, "unit": "nm"},
      {"measurement": "λmax Em. (nm)", "setting": "[2]", "value": 562, "unit": "nm"}
    ]},
    {"smiles": "CC(=O)Nc1ccc(C2=C3C=CC(NCc4cc(F)cc(F)c4)=[N+]3[B-](F)(F)n3c2ccc3-n2cc(CC(C)C)nn2)cc1", "note": "[MKAC412-43]", "values": [
      {"measurement": "φ (%)", "setting": "[1]; MKAC compound library", "value": 18.26, "unit": "%"},
      {"measurement": "λmax Abs. (nm)", "setting": "[2]", "value": 467, "unit": "nm"},
      {"measurement": "λmax Em. (nm)", "setting": "[2]", "value": 560, "unit": "nm"}
    ]},
    {"smiles": "CCCc1cn(-c2ccc3n2[B-](F)(F)[N+]2=C(NCc4cc(F)cc(F)c4)C=CC2=C3c2ccc(NC(C)=O)cc2)nn1", "note": "[MKAC412-48]", "values": [
      {"measurement": "φ (%)", "setting": "[1]; MKAC compound library", "value": 22.19, "unit": "%"},
      {"measurement": "λmax Abs. (nm)", "setting": "[2]", "value": 467, "unit": "nm"},
      {"measurement": "λmax Em. (nm)", "setting": "[2]", "value": 561, "unit": "nm"}
    ]},
    {"smiles": "CCCCCC(O)c1cn(-c2ccc3n2[B-](F)(F)[N+]2=C(NCc4cc(F)cc(F)c4)C=CC2=C3c2ccc(NC(C)=O)cc2)nn1", "note": "(stereo not drawn) [MKAC412-69]", "values": [
      {"measurement": "φ (%)", "setting": "[1]; MKAC compound library", "value": 17.68, "unit": "%"},
      {"measurement": "λmax Abs. (nm)", "setting": "[2]", "value": 468, "unit": "nm"},
      {"measurement": "λmax Em. (nm)", "setting": "[2]", "value": 563, "unit": "nm"}
    ]},
    {"smiles": "CC(=O)Nc1ccc(C2=C3C=CC(NCc4cc(F)cc(F)c4)=[N+]3[B-](F)(F)n3c2ccc3-n2cc(CO)nn2)cc1", "note": "[MKAC412-70]", "values": [
      {"measurement": "φ (%)", "setting": "[1]; MKAC compound library", "value": 3.96, "unit": "%"},
      {"measurement": "λmax Abs. (nm)", "setting": "[2]", "value": 461, "unit": "nm"},
      {"measurement": "λmax Em. (nm)", "setting": "[2]", "value": 561, "unit": "nm"}
    ]},
    {"smiles": "CCCC(C)c1cn(-c2ccc3n2[B-](F)(F)[N+]2=C(N4CC(C)OC(C)C4)C=CC2=C3c2ccc(NC(=O)CCl)cc2)nn1", "note": "(stereo not drawn) [MKCA20-3]", "values": [
      {"measurement": "φ (%)", "setting": "[1]; MKCA compound library", "value": 3.15, "unit": "%"},
      {"measurement": "λmax Absorp. (nm)", "setting": "[2]", "value": 467, "unit": "nm"},
      {"measurement": "λmax Emission (nm)", "setting": "[2]", "value": 581, "unit": "nm"}
    ]},
    {"smiles": "CC1CN(C2=[N+]3C(=C(c4ccc(NC(=O)CCl)cc4)c4ccc(-n5cc(C6CC6)nn5)n4[B-]3(F)F)C=C2)CC(C)O1", "note": "(stereo not drawn) [MKCA20-4]", "values": [
      {"measurement": "φ (%)", "setting": "[1]; MKCA compound library", "value": 6.11, "unit": "%"},
      {"measurement": "λmax Absorp. (nm)", "setting": "[2]", "value": 466, "unit": "nm"},
      {"measurement": "λmax Emission (nm)", "setting": "[2]", "value": 581, "unit": "nm"}
    ]},
    {"smiles": "CC1CN(C2=[N+]3C(=C(c4ccc(NC(=O)CCl)cc4)c4ccc(-n5cc(C6CCCC6)nn5)n4[B-]3(F)F)C=C2)CC(C)O1", "note": "(stereo not drawn) [MKCA20-5]", "values": [
      {"measurement": "φ (%)", "setting": "[1]; MKCA compound library", "value": 4.60, "unit": "%"},
      {"measurement": "λmax Absorp. (nm)", "setting": "[2]", "value": 468, "unit": "nm"},
      {"measurement": "λmax Emission (nm)", "setting": "[2]", "value": 581, "unit": "nm"}
    ]},
    {"smiles": "CC1CN(C2=[N+]3C(=C(c4ccc(NC(=O)CCl)cc4)c4ccc(-n5cc(CC6CCCCC6)nn5)n4[B-]3(F)F)C=C2)CC(C)O1", "note": "(stereo not drawn) [MKCA20-8]", "values": [
      {"measurement": "φ (%)", "setting": "[1]; MKCA compound library", "value": 6.71, "unit": "%"},
      {"measurement": "λmax Absorp. (nm)", "setting": "[2]", "value": 466, "unit": "nm"},
      {"measurement": "λmax Emission (nm)", "setting": "[2]", "value": 573, "unit": "nm"}
    ]},
    {"smiles": "CC1CN(C2=[N+]3C(=C(c4ccc(NC(=O)CCl)cc4)c4ccc(-n5cc(CN(C)Cc6ccccc6)nn5)n4[B-]3(F)F)C=C2)CC(C)O1", "note": "(stereo not drawn) [MKCA20-18]", "values": [
      {"measurement": "φ (%)", "setting": "[1]; MKCA compound library", "value": 2.54, "unit": "%"},
      {"measurement": "λmax Absorp. (nm)", "setting": "[2]", "value": 466, "unit": "nm"},
      {"measurement": "λmax Emission (nm)", "setting": "[2]", "value": 585, "unit": "nm"}
    ]}
  ]
}
